Consider two molecules from patent publication US4065453A, “Levorotatory molindone and the use as an antidepressant” (Endo Laboratories, Inc., priority 1976, dated 1977).

Assay [1] in a line: Tetrabenazine Antagonism (Anti-TBZ). The assay is classed as in vivo, mouse (Carworth CF1 S female mice). The settings on record: for ED50: po, 1 h, mouse, p.o., tetrabenazine 32 mg/kg i.p. 30 min after compound. Here is the method: Groups of 10 Carworth CF1 S female mice, 18-21 g each, were fasted 1.5 hours and were incubated with antagonist compounds at oral doses of 0, 5, 25, and 125 mg/kg or 0, 1, 3, 9, 27, and 81 mg/kg in 0.20 ml of 1% Methocel. The mice were challenged 30 minutes later with tetrabenazine (as the methanesulfonate), 32 mg/kg intraperitoneally (dissolved in 0.20 ml 0.05M KCl at pH 2.0). One hour after antagonist (30 minutes after tetrabenzaine), the mice were examined for signs of exploratory activity and ptosis (eyelid closure). Normal exploratory activity (relief from sedation) was recorded when a mouse lifted by the tail from a group of 10 in a testing box and placed on a stainless steel testing box lid (12.5 × 8 inches with 0.33 inch mesh) either turned its head horizontally 30° in both directions or moved to the edge of the screen within 10 seconds after being placed on the screen. Relief from ptosis was recorded when exactly two seconds after placing the mouse facing the observer, lid closure was less than 50% in both eyes.
The ED50 's for the compound of the present invention and for the molindone racemic mixture are given in the following table, along with certain appropriate ratios: […]

A short description of a further assay: Exploratory Loss. Type of assay: in vivo, mouse. The settings on record: for ED50: po, mouse, p.o., loss of exploratory activity, column 3, read-out: ED50 mouse EXPL. LOSS. An excerpt: The mouse is placed on a stainless steel wire mesh screen (8 × 12 inches, 3 mesh per inch, 1/4inch mesh openings) "shoe-box" lid (1inch high) and is observed for normal activities, such as nose movements, head movements with apparent visual examination of the area, and/or walking around on the screen. Normal mice respond within 2 to 3 seconds. Absence of or a marked depression of these activities for 5 seconds constitutes a loss of exploratory activity. The ED50 's for the compound of the present invention and for the molindone racemic mixture are given in the following table, along with certain appropriate ratios: […]

A short description of assay [2]: Rat Conditioned Avoidance Response (rat CAR). The assay is classed as in vivo. The settings on record: for ED50: po, rat, p.o., block of conditioned avoidance response in 50% of rats, tested 1, 2 and 4 hours after dosing, column 4. Here is the method:
Blocking of CAR in rats at nontoxic doses correlates with major tranquilizer activity in man. Rats are trained to jump out of a pit onto a ledge to avoid shock when presented with a conditioned stimulus of light and sound. Three or four doses of durg are given to a group of 4-8 rats. The animals are tested 1, 2 and 4 hours after dosing. A quantal ED50 is calculated as the dose which would block the CAR in 50% of the rats. The results are given in mg/kg., p.o. (Table 1) The ED50 's for the compound of the present invention and for the molindone racemic mixture are given in the following table, along with certain appropriate ratios: […]

Setting [3] is: relief from ptosis, column 1, read-out: ED50 mouse ANTI-TBZ ptosis.
The mark [4] stands for this setting: relief from sedation (exploratory activity), column 2, read-out: ED50 mouse ANTI-TBZ expl. loss.

With `CCc1c(C)[nH]c2c1C(=O)C(CN1CCOCC1)CC2` (racemic) [(±)-molindone, 3-ethyl-6,7-dihydro-2-methyl-5(morpholinomethyl)indol-4(5H)-one, reference compound], the ED50 (in general, the dose that gives a 50% effect, or the effect in half of the subjects) in assay [1] (setting [3]) came to 7.2 mg/kg; in assay [1] (setting [4]) it was 9 mg/kg; in “Exploratory Loss”, 38 mg/kg; in assay [2], 28 mg/kg.
Regarding `CCc1c(C)[nH]c2c1C(=O)C(CN1CCOCC1)CC2` (single isomer, unassigned; (-)) [(-)-molindone], in assay [1] (in words), the “antidepressant activity compared with the racemate” value is on record as “significantly greater antidepressant activity”. Further, the ED50 came to 2.7 mg/kg in assay [1] (setting [3]), 3.4 mg/kg in assay [1] (setting [4]), 25 mg/kg in the assay “Exploratory Loss” and 21 mg/kg in assay [2]. Besides, the “separation of the antidepressant activity from the sedative activity” value in the assay “Exploratory Loss” (as compared with the racemate, from the ratios in the table, in words) is “clear separation of the antidepressant activity from the sedative activity”. Besides, in the assay “Exploratory Loss” (in words), the “sedative activity compared with the racemate” value is “approximately the same sedative and tranquilizer activity as the racemate”. For the same molecule, the “tranquilizer activity compared with the racemate” value in assay [2] (in words) was “approximately the same sedative and tranquilizer activity as the racemate”.
